Data set [1] relates to hepatic stage of P. berghei. The data set is described as follows: In vitro activity against P. berghei hepatic stages (luciferase-expressing sporozoites in Huh-7 cells, bioluminescence). In kind it is cell-based, Plasmodium berghei. The following applies: Plasmodium berghei, Huh-7, 48 h; for activity at 1 µM / activity at 10 µM: DMSO = 100, read-out: INFECTION Ø screening. How it is done: Activity against the hepatic stage of P. berghei infection was assessed using the human hepatoma cell line Huh-7 (deposited at the Japanese Collection of Research Bioresources under JCRB0403). The protocol was previously comprehensively described by Prudêncio et al. and by Ploemen et al.. […] Cells were seeded in 96-well plates at a density of 1 × 10^4 cells per well in 100 µL of culture medium and incubated at 37 °C with 5% CO2 for approximately 18 h. […] The culture medium was substituted by infection medium with diluted compounds 1 hour in advance of infection. Luciferase-expressing P. berghei sporozoites (PbA-LuciGFPcon spz) were freshly obtained through the dissection of salivary glands from infected female Anopheles stephensi mosquitoes. Sporozoites were added to the cells at 1:1 ratio, i.e., 1 × 10^4 sporozoites were added per well, and then subjected to centrifugation at 1800× g for 5 min. The plate was then incubated for 46 h at 37 °C with 5% CO2, at which time Huh-7 cell confluency was indirectly assessed by the alamarBlue assay (Invitrogen, Waltham, MA, USA), as reported in the manufacturer’s protocol. Parasite load was assessed 48 h post-infection by a bioluminescence assay, as reported by the manufacturer (Biotium, Fremont, CA, USA). GraphPad Prism 8 (GraphPad Software, Inc., La Jolla, CA, USA) was used to obtain IC50 values using nonlinear regression analysis to fit the dose-response curves normalized results.

Data set [2] relates to Huh-7 cell line. The data set is described as follows: Huh-7 cell confluency by alamarBlue assay during hepatic-stage test. The class given is cell-based. The method, then: Activity against the hepatic stage of P. berghei infection was assessed using the human hepatoma cell line Huh-7 (deposited at the Japanese Collection of Research Bioresources under JCRB0403). The protocol was previously comprehensively described by Prudêncio et al. and by Ploemen et al.. Briefly, cell culture medium consisted of 1640 RPMI medium supplemented with 10% v/v fetal calf serum, 1% v/v L-glutamine, 1% v/v nonessential amino acids, 1% v/v penicillin/streptomycin, and 10 mM HEPES, pH 7. Cells were seeded in 96-well plates at a density of 1 × 10^4 cells per well in 100 µL of culture medium and incubated at 37 °C with 5% CO2 for approximately 18 h. […] The culture medium was substituted by infection medium with diluted compounds 1 hour in advance of infection. Luciferase-expressing P. berghei sporozoites (PbA-LuciGFPcon spz) were freshly obtained through the dissection of salivary glands from infected female Anopheles stephensi mosquitoes. Sporozoites were added to the cells at 1:1 ratio, i.e., 1 × 10^4 sporozoites were added per well, and then subjected to centrifugation at 1800× g for 5 min. The plate was then incubated for 46 h at 37 °C with 5% CO2, at which time Huh-7 cell confluency was indirectly assessed by the alamarBlue assay (Invitrogen, Waltham, MA, USA), as reported in the manufacturer’s protocol. Parasite load was assessed 48 h post-infection by a bioluminescence assay, as reported by the manufacturer (Biotium, Fremont, CA, USA). GraphPad Prism 8 (GraphPad Software, Inc., La Jolla, CA, USA) was used to obtain IC50 values using nonlinear regression analysis to fit the dose-response curves normalized results.

The mark [3] stands for this setting: at 1 μM, DMSO = 100, in % (unit assumed).
The mark [4] stands for this setting: at 10 μM, DMSO = 100, in % (unit assumed).

For the molecule `COc1cc(OC)cc(C(=O)OC2CN3Cc4cc5c(cc4C24C=CC(OC)CC34)OCO5)c1` (stereo not drawn) [29i, 11-O-(3,5-dimethoxybenzoyl)haemanthamine], in data set [1], the activity at 1 µM amounted to 64% and the activity at 10 µM worked out at 27.5%. Further, the “CELL CONFLUENCY Ø screening” value in data set [2] (human, 46 h, 1 µM, pH 7) was 123.1. Moreover, the “CELL CONFLUENCY Ø screening” value in data set [2] (human, 46 h, 10 µM, pH 7) is on record as 120.8.
For `COc1ccc(C(=O)OC2CN3Cc4cc5c(cc4C24C=CC(OC)CC34)OCO5)cc1OC` (stereo not drawn) [29h, 11-O-(3,4-dimethoxybenzoyl)haemanthamine], in that order: 90.4%, 46%, 101.7 and 100.3.
In the case of `COC1C=CC23c4cc5c(cc4CN(CC2OC(=O)c2ccc([N+](=O)[O-])cc2)C3C1)OCO5` (stereo not drawn) [29k, 11-O-(4-nitrobenzoyl)haemanthamine], in data set [1], the activity at 1 µM is 63.6% and the activity at 10 µM is 71%. For the same molecule, the “CELL CONFLUENCY Ø screening” value in data set [2] (setting [3]) is listed as 104.8. Besides, the “CELL CONFLUENCY Ø screening” value in data set [2] (setting [4]) is 91.29.
With `COC1C=CC23c4cc5c(cc4CN(CC2OC(=O)c2cccc(C)c2)C3C1)OCO5` (stereo not drawn) [29c, 11-O-(3-methylbenzoyl)haemanthamine], in data set [1], the activity at 1 µM stood at 96.8% and the activity at 10 µM is 28.3%. In addition, the “CELL CONFLUENCY Ø screening” value in data set [2] (human, 46 h, 1 µM, pH 7) came out at 124.3. Also, in data set [2] (human, 46 h, 10 µM, pH 7), the “CELL CONFLUENCY Ø screening” value was found to be 135.7.
With `COc1ccccc1C(=O)OC1CN2Cc3cc4c(cc3C13C=CC(OC)CC23)OCO4` (stereo not drawn) [29e, 11-O-(2-methoxybenzoyl)haemanthamine], in data set [1], the activity at 1 µM turned out to be 67.6% and the activity at 10 µM turned out to be 28.8%. Besides, in data set [2] (human, 46 h, 1 µM, pH 7), the “CELL CONFLUENCY Ø screening” value worked out at 124.9. Further, the “CELL CONFLUENCY Ø screening” value in data set [2] (human, 46 h, 10 µM, pH 7) worked out at 167.5.
On to `CCC(=O)OC1CN2Cc3cc4c(cc3C13C=CC(OC)CC23)OCO4` (stereo not drawn) [29a, 11-O-propionylhaemanthamine], for which the activity at 1 µM in data set [1] was 87.6%. Besides, the activity at 10 µM in data set [1] was determined as 71.9%. For the same molecule, the “CELL CONFLUENCY Ø screening” value in data set [2] (setting [3]) is given as 95.58; in data set [2] (setting [4]) it was 90.95.
Take `COC1C=CC23c4cc5c(cc4CN(CC2OC(=O)c2ccc(C)cc2)C3C1)OCO5` (stereo not drawn) [29d, 11-O-(4-methylbenzoyl)haemanthamine]: in data set [1], the activity at 1 µM is 47.8% and the activity at 10 µM was found to be 29%. Also, the “CELL CONFLUENCY Ø screening” value in data set [2] (human, 46 h, 1 µM, pH 7) is 120.6. In addition, the “CELL CONFLUENCY Ø screening” value in data set [2] (human, 46 h, 10 µM, pH 7) is on record as 113.7.
The matching figures for `COc1ccc(C(=O)OC2CN3Cc4cc5c(cc4C24C=CC(OC)CC34)OCO5)cc1` (stereo not drawn) [29g, 11-O-(4-methoxybenzoyl)haemanthamine]: 49.1%, 42.6%, 95.31 and 88.51.
As usually defined, the IC50 is the concentration that inhibits the measured activity by half. As to `COc1cc(NC(C)CCCN)c2ncccc2c1` (stereo not drawn) [Primaquine, reference compound], the IC50 in data set [1] (read-out: IC50 P. berghei) is 5.74 ± 0.86 µM.
Take `COC1C=CC23c4cc5c(cc4CN(CC2OC(=O)c2cccc([N+](=O)[O-])c2)C3C1)OCO5` (stereo not drawn) [29j, 11-O-(3-nitrobenzoyl)haemanthamine]: the activity at 1 µM in data set [1] is 78.2%. Moreover, the activity at 10 µM in data set [1] was determined as 48.5%. Moreover, the “CELL CONFLUENCY Ø screening” value in data set [2] (human, 46 h, 1 µM, pH 7) worked out at 100.8; in data set [2] (human, 46 h, 10 µM, pH 7), 94.5.
Consider `COc1cccc(C(=O)OC2CN3Cc4cc5c(cc4C24C=CC(OC)CC34)OCO5)c1` (stereo not drawn) [29f, 11-O-(3-methoxybenzoyl)haemanthamine], for which, in data set [1], the activity at 1 µM was 76.1% and the activity at 10 µM was 29.8%. Also, the “CELL CONFLUENCY Ø screening” value in data set [2] (setting [3]) was determined as 130.9. For the same molecule, the “CELL CONFLUENCY Ø screening” value in data set [2] (setting [4]) turned out to be 134.6.
For `COC1C=CC23c4cc5c(cc4CN(CC2OC(=O)C(C)C)C3C1)OCO5` (stereo not drawn) [29b, 11-O-isobutanoylhaemanthamine], in that order: 71.4%, 70.6%, 106.7 and 111.9.

For the origin of these results see publication PMC10056443, “Derivatives of Amaryllidaceae Alkaloid Ambelline as Selective Inhibitors of Hepatic Stage of Plasmodium berghei Infection In Vitro” (Pharmaceutics, 2023).
